{"source": "paper PMC5826112", "about": "“Intrapulmonary Pharmacokinetics of Relebactam, a Novel β-Lactamase Inhibitor, Dosed in Combination with Imipenem-Cilastatin in Healthy Subjects” (Antimicrobial Agents and Chemotherapy, 2018)", "key": {"[1]": {"parameters": "method as in PMID 26349830", "conditions": "healthy adults, meropenem-RPX7009; cited from earlier work"}, "[2]": {"parameters": "method as in PMID 7831630", "conditions": "orally administered amoxicillin-clavulanate; cited from earlier work"}, "[3]": {"conditions": "healthy adults, ceftolozane-tazobactam; cited from earlier work"}, "[4]": {"parameters": "method as in PMID 17039351", "conditions": "multiple-dose, adult patients with ventilator-associated pneumonia; cited from earlier work"}, "[5]": {"assay": "Intrapulmonary (ELF, AC) and plasma pharmacokinetics after multiple-dose IV relebactam with imipenem-cilastatin, bronchoscopy/BAL, noncompartmental analysis", "format": "in vivo, human (healthy subjects)", "conditions": "for t1/2 (terminal half-life) / half-life / AUC(0-inf) / Cmax / Tmax / AUC(0-t): mean profile; for half-life: read-out: t1/2 (terminal half-life) (converted); for AUC(0-inf): noncompartmental analysis; for AUC(0-t): read-out: AUC0–3; for concentrations in AC (alveolar cells): result in words", "procedure": "Dosing and administration of imipenem-cilastatin were carried out in a manner consistent with the recommended labeled posology. BAL fluid specimens were obtained during bronchoscopy for the determination of the relebactam and imipenem concentrations in the ELF and AC. Four aliquots of normal saline (50 ml each) were sequentially instilled and aspirated after each instillation. The first aspirate was discarded, and the remaining aspirates were pooled and used to obtain urea and drug level measurements. Aliquots were obtained for cell count/differential, and the remainder of the pooled aspirates was centrifuged. The liquid aspirate and cell pellet were separated and stored at −70°C. The supernatant was sent for urea and drug level measurements. Blood samples were collected prior to the first and fifth doses of study drug for the determination of relebactam and imipenem plasma concentrations. Blood samples were also collected during the bronchoscopy/BAL procedure for the determination of relebactam, imipenem, and urea concentrations. Relebactam and imipenem levels in plasma, pulmonary ELF, and AC were measured simultaneously via acetonitrile protein precipitation and hydrophilic interaction liquid chromatography (HILIC) with detection via liquid chromatography-tandem mass spectrometry (LC-MS/MS). The system consisted of a Waters Acquity ultraperformance liquid chromatograph (Waters Corp., Milford, MA) and an API 4000 or 5000 triple-quadrupole tandem mass spectrometer (Sciex, Framingham, MA) equipped with a turbo-ion spray interface and operated in the positive ionization mode. The multiple reaction monitoring (MRM) transitions monitored were m/z 349 → 269 for relebactam, m/z 300 → 98 for imipenem, and m/z 354 → 274 and m/z 307 → 98 for their respective internal standards. […] The ELF volumes recovered by BAL were determined by using urea as an endogenous marker to provide a dilution ratio by measurement of urea concentrations in the BAL fluid and serum ([33]). […] The mean value for each time point was used to conduct the noncompartmental analysis using Phoenix (version 6.3) software (Pharsight Corporation, Mountain View, CA) and to calculate the values of the PK parameters on the basis of the mean profile in each matrix."}, "[6]": {"conditions": "no reference given; cited from earlier work"}, "[7]": {"parameters": "method as in PMID 21300830", "conditions": "patients with ventilator-associated pneumonia; cited from earlier work"}, "[8]": {"conditions": "critically ill patients, multiple doses of piperacillin-tazobactam; cited from earlier work"}, "[9]": {"conditions": "both sexes, human, intravenous, ELF, same regimen"}, "[10]": {"conditions": "both sexes, human, intravenous, plasma, same regimen"}}, "note": "“Also recorded” adds a separate entry of the source. Where two headings read alike, the source gives them in different places."}
{"smiles": "O=C(O)C[C@@H]1CC[C@H](NC(=O)Cc2cccs2)B(O)O1", "note": "[RPX7009]", "values": [{"measurement": "mean penetration ratio based on AUC", "setting": "[1]", "result": 53, "unit": "%"}]}
{"smiles": "CC1(C)S[C@@H]2[C@H](NC(=O)[C@H](N)c3ccc(O)cc3)C(=O)N2[C@H]1C(=O)O", "note": "[amoxicillin]", "values": [{"measurement": "concentrations in ELF relative to those in plasma", "setting": "[2]", "result": "less than 20%"}]}
{"smiles": "Cn1c(N)c(NC(=O)NCCN)c[n+]1CC1=C(C(=O)O)N2C(=O)[C@@H](NC(=O)/C(=N\\OC(C)(C)C(=O)[O-])c3nsc(N)n3)[C@H]2SC1", "note": "[ceftolozane]", "values": [{"measurement": "ELF/plasma AUC ratio", "setting": "[3]", "result": 48, "unit": "%"}]}
{"smiles": "O=C(O)[C@H]1/C(=C/CO)O[C@@H]2CC(=O)N21", "note": "[clavulanate]", "values": [{"measurement": "concentrations in ELF relative to those in plasma", "setting": "[2]", "result": "less than 20%"}]}
{"smiles": "C[C@@H](O)[C@H]1C(=O)N2C(C(=O)O)=C(S[C@@H]3CN[C@H](C(=O)Nc4cccc(C(=O)O)c4)C3)[C@H](C)[C@H]12", "note": "[ertapenem]", "values": [{"measurement": "ratios of ELF concentrations to total plasma concentrations, median", "setting": "[4]", "result": 0.32}]}
{"smiles": "C[C@@H](O)[C@H]1C(=O)N2C(C(=O)O)=C(SCCN=CN)C[C@H]12", "note": "[imipenem]", "values": [{"measurement": "t1/2 (terminal half-life)", "setting": "[5]; ELF, same regimen", "result": 61.8, "unit": "min"}, {"measurement": "half-life", "setting": "[5]; both sexes, human, ELF, intravenous, ELF, same regimen", "result": 60, "unit": "min"}, {"measurement": "concentration at 0.5 h", "setting": "[5]; both sexes, human, ELF, intravenous, same regimen, 0.5 h after last dose, n=4, read-out: concn in ELF, GM", "result": 32.1, "unit": "µM"}, {"measurement": "concentration at 1 h", "setting": "[5]; both sexes, human, ELF, intravenous, same regimen, 1 h after last dose, n=4, read-out: concn in ELF, GM", "result": 20.3, "unit": "µM"}, {"measurement": "concentration at 1.5 h", "setting": "[5]; both sexes, human, ELF, intravenous, same regimen, 1.5 h after last dose, n=4, read-out: concn in ELF, GM", "result": 16.5, "unit": "µM"}, {"measurement": "concentration at 3 h", "setting": "[5]; both sexes, human, ELF, intravenous, same regimen, 3 h after last dose, n=4, read-out: concn in ELF, GM", "result": 5.99, "unit": "µM"}, {"measurement": "Kp", "setting": "[5]; both sexes, human, ELF/plasma, intravenous, calculated as 100 · ELF AUC0–∞/plasma AUC0–∞/0.8, adjusted for protein binding (80% unbound in plasma, 100% free in ELF), read-out: Adjusted ELF/plasma AUC0–∞ ratio", "result": 0.55}, {"measurement": "Kp", "setting": "[5]; both sexes, human, ELF/plasma, intravenous, calculated as 100 · ELF AUC0–∞/plasma AUC0–∞, mean profiles, read-out: ELF/plasma AUC0–∞ ratio", "result": 0.442}, {"measurement": "Kp", "setting": "[5]; both sexes, human, ELF/plasma, intravenous, same regimen, 0.5 to 3 h after last dose, read-out: GMRs for ELF/plasma concentrations, range across time points", "result": "0.32 to 0.55"}, {"measurement": "Kp at 1 h", "setting": "[5]; both sexes, human, ELF/plasma, intravenous, same regimen, 1.0 h after last dose, n=4, read-out: ELF/plasma concn GMR (90% CI)", "result": 0.36}, {"measurement": "Kp at 1.5 h", "setting": "[5]; both sexes, human, ELF/plasma, intravenous, same regimen, 1.5 h after last dose, n=4, read-out: ELF/plasma concn GMR (90% CI)", "result": 0.55}, {"measurement": "Kp at 3 h", "setting": "[5]; both sexes, human, ELF/plasma, intravenous, same regimen, 3.0 h after last dose, n=4, read-out: ELF/plasma concn GMR (90% CI)", "result": 0.5}, {"measurement": "Kp at 0.5 h", "setting": "[5]; both sexes, human, ELF/plasma, iv, healthy subjects, relebactam 250 mg with imipenem-cilastatin 500 mg IV every 6 h, 5 doses, 0.5 h after last dose, n=4, read-out: ELF/plasma concn GMR (90% CI)", "result": 0.32}, {"measurement": "AUC(0-inf)", "setting": "[5]; [9]", "result": 57.4, "unit": "µM·h"}, {"measurement": "Cmax", "setting": "[5]; [9]", "result": 32.6, "unit": "µM"}, {"measurement": "Tmax", "setting": "[5]; [9]", "result": 30, "unit": "min"}, {"measurement": "AUC(0-t)", "setting": "[5]; [9]", "result": 48.4, "unit": "µM·h"}, {"measurement": "AUC(0-inf)", "setting": "[5]; [10]", "result": 130, "unit": "µM·h"}, {"measurement": "Cmax", "setting": "[5]; [10]", "result": 99.6, "unit": "µM"}, {"measurement": "Tmax", "setting": "[5]; [10]", "result": 30, "unit": "min"}, {"measurement": "AUC(0-t)", "setting": "[5]; [10]", "result": 114, "unit": "µM·h"}, {"measurement": "half-life", "setting": "[5]; both sexes, human, plasma, intravenous, plasma, same regimen", "result": 60, "unit": "min"}, {"measurement": "Adjusted ELF/plasma AUC0–∞ ratio", "setting": "[5]; calculated as 100 · ELF AUC0–∞/plasma AUC0–∞/0.8, adjusted for protein binding (80% unbound in plasma, 100% free in ELF)", "result": 55.2, "unit": "%"}, {"measurement": "t1/2 (terminal half-life)", "setting": "[5]; plasma, same regimen", "result": 57, "unit": "min"}, {"measurement": "concentrations in AC (alveolar cells)", "setting": "[5]; same regimen", "result": "below the limit of quantitation"}, {"measurement": "concentrations in AC (alveolar cells)", "setting": "[5]; same regimen, listed as Imipenem", "result": "undetectable in the majority of patients; also recorded: not detected"}, {"measurement": "unbound in plasma (free fraction)", "setting": "[6]", "result": 80, "unit": "%"}]}
{"smiles": "C[C@@H](O)[C@H]1C(=O)N2C(C(=O)O)=C(S[C@@H]3CN[C@H](C(=O)N(C)C)C3)[C@H](C)[C@H]12", "note": "[meropenem]", "values": [{"measurement": "ELF/plasma concentration ratio estimated by population modeling", "setting": "[7]", "result": 30, "unit": "%"}, {"measurement": "mean penetration ratio based on AUC", "setting": "[1]", "result": 63, "unit": "%"}]}
{"smiles": "C[C@]1(Cn2ccnn2)[C@H](C(=O)O)N2C(=O)C[C@H]2S1(=O)=O", "note": "[tazobactam]", "values": [{"measurement": "mean concentrations in ELF relative to total concentrations in plasma", "setting": "[8]", "result": "~91", "unit": "%"}, {"measurement": "ELF/plasma AUC ratio", "setting": "[3]", "result": 44, "unit": "%"}]}
